Measurements published in PubChem BioAssay AID256 (DTP/NCI, 2004).
Where “and” joins values, the source holds several entries; their conditions need not be identical. Equal entries are not always repeated. Inconclusive results and toxic doses are left out.

System: CD2F1 mice, L1210 leukemia ip, survival T/C
Test: NCI In Vivo Anticancer Drug Screen. Data for tumor model L1210 Leukemia (intraperitoneal) in CD2F1 (CDF1) mice
Details: endpoint: mean survival time, higher = longer survival
In short: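 In this screen, transplantable tumors were grown in mice given either the compound or its vehicle. Results were expressed as the treated measurement relative to the control measurement.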

Nc1nc(=S)c2ncn(C3CC(O)C(CO)O3)c2[nH]1 (centres undefined)
T/C (dose: 1.25 mg/kg/injection, schedule: Q01DX005 (ip), vehicle: saline): 150 % of control
T/C (dose: 2.5 mg/kg/injection, schedule: Q01DX001 (ip), vehicle: steriod suspending solution): 123 % of control
T/C (dose: 4.0 mg/kg/injection, schedule: Q01DX009 (sc), vehicle: saline): 108 % of control
T/C (dose: 5.0 mg/kg/injection, schedule: Q01DX005 (ip), vehicle: saline with Tween-80): 154 % of control
T/C (dose: 5.0 mg/kg/injection, schedule: Q01DX005 (oral), vehicle: saline): 160 % of control
T/C (dose: 5.0 mg/kg/injection, schedule: Q04DX003 (ip), vehicle: water): 153 % of control
T/C (dose: 8.0 mg/kg/injection, schedule: Q01DX009 (ip), vehicle: saline): 151 % of control
T/C (dose: 8.0 mg/kg/injection, schedule: Q01DX009 (sc), vehicle: saline): 106 % of control
T/C (dose: 10.0 mg/kg/injection, schedule: Q01DX005 (ip), vehicle: saline with Tween-80): 120 % of control
T/C (dose: 10.0 mg/kg/injection, schedule: Q01DX005 (ip), vehicle: saline): 151 % of control
T/C (dose: 10.0 mg/kg/injection, schedule: Q01DX005 (oral), vehicle: saline): 156 % of control
T/C (dose: 10.0 mg/kg/injection, schedule: Q04DX003 (ip), vehicle: suspension in saline): 154 % of control
T/C (dose: 10.0 mg/kg/injection, schedule: Q04DX003 (iv), vehicle: suspension in saline): 177 % of control
T/C (dose: 16.0 mg/kg/injection, schedule: Q01DX005 (ip), vehicle: saline): 161 % of control
T/C (dose: 16.0 mg/kg/injection, schedule: Q01DX009 (ip), vehicle: saline): 170 % of control
T/C (dose: 16.0 mg/kg/injection, schedule: Q01DX009 (ip), vehicle: water): 108 % of control
T/C (dose: 16.0 mg/kg/injection, schedule: Q01DX009 (sc), vehicle: saline): 151 % of control
T/C (dose: 20.0 mg/kg/injection, schedule: Q01DX001 (sc), vehicle: saline): 121 % of control
T/C (dose: 20.0 mg/kg/injection, schedule: Q01DX005 (oral), vehicle: saline): 151 % of control
T/C (dose: 20.0 mg/kg/injection, schedule: Q03HX008 (ip), vehicle: saline): 152 % of control
T/C (dose: 20.0 mg/kg/injection, schedule: Q03HX024 (ip), vehicle: saline): 150 % of control
T/C (dose: 20.0 mg/kg/injection, schedule: Q04DX003 (ip), vehicle: saline): 157 % of control
T/C (dose: 20.0 mg/kg/injection, schedule: Q04DX003 (ip), vehicle: suspension in saline): 159 % of control
T/C (dose: 20.0 mg/kg/injection, schedule: Q04DX003 (iv), vehicle: suspension in saline): 159 % of control
T/C (dose: 24.0 mg/kg/injection, schedule: Q01DX009 (ip), vehicle: water): 116 % of control and 103 % of control
T/C (dose: 24.0 mg/kg/injection, schedule: Q04DX003 (ip), vehicle: water): 118 % of control
T/C (dose: 32.0 mg/kg/injection, schedule: Q01DX005 (ip), vehicle: saline): 152 % of control
T/C (dose: 32.0 mg/kg/injection, schedule: Q01DX009 (ip), vehicle: saline): 157 % of control
T/C (dose: 32.0 mg/kg/injection, schedule: Q01DX009 (sc), vehicle: saline): 150 % of control
T/C (dose: 36.0 mg/kg/injection, schedule: Q01DX009 (ip), vehicle: water): 103 % of control
T/C (dose: 36.0 mg/kg/injection, schedule: Q04DX003 (ip), vehicle: water): 111 % of control
T/C (dose: 37.5 mg/kg/injection, schedule: Q04DX003 (ip), vehicle: clinical formulation): 102 % of control
T/C (dose: 37.5 mg/kg/injection, schedule: Q04DX003 (ip), vehicle: saline): 163 % of control
T/C (dose: 40.0 mg/kg/injection, schedule: Q03HX008 (ip), vehicle: saline): 157 % of control
T/C (dose: 40.0 mg/kg/injection, schedule: Q03HX016 (ip), vehicle: saline): 156 % of control
T/C (dose: 40.0 mg/kg/injection, schedule: Q03HX024 (ip), vehicle: saline): 159 % of control
T/C (dose: 40.0 mg/kg/injection, schedule: Q04DX003 (ip), vehicle: saline): 178 % of control
T/C (dose: 40.0 mg/kg/injection, schedule: Q04DX003 (ip), vehicle: suspension in saline): 151 % of control
T/C (dose: 40.0 mg/kg/injection, schedule: Q04DX003 (iv), vehicle: suspension in saline): 189 % of control
T/C (dose: 40.0 mg/kg/injection, schedule: Q08DX002 (ip), vehicle: saline): 152 % of control
T/C (dose: 50.0 mg/kg/injection, schedule: Q01DX009 (ip), vehicle: water): 107 % of control
T/C (dose: 50.0 mg/kg/injection, schedule: Q04DX003 (ip), vehicle: water): 120 % of control and 103 % of control
T/C (dose: 64.0 mg/kg/injection, schedule: Q01DX009 (ip), vehicle: saline): 123 % of control
T/C (dose: 75.0 mg/kg/injection, schedule: Q04DX003 (ip), vehicle: clinical formulation): 111 % of control
T/C (dose: 75.0 mg/kg/injection, schedule: Q04DX003 (ip), vehicle: saline): 154 % of control
T/C (dose: 76.0 mg/kg/injection, schedule: Q01DX009 (ip), vehicle: water): 115 % of control
T/C (dose: 76.0 mg/kg/injection, schedule: Q04DX003 (ip), vehicle: water): 122 % of control and 103 % of control
T/C (dose: 80.0 mg/kg/injection, schedule: Q01DX001 (ip), vehicle: saline): 154 % of control
T/C (dose: 80.0 mg/kg/injection, schedule: Q03HX008 (ip), vehicle: saline): 161 % of control
T/C (dose: 80.0 mg/kg/injection, schedule: Q03HX016 (ip), vehicle: saline): 168 % of control
T/C (dose: 80.0 mg/kg/injection, schedule: Q03HX024 (ip), vehicle: saline): 161 % of control
T/C (dose: 80.0 mg/kg/injection, schedule: Q04DX003 (ip), vehicle: saline): 174 % of control
T/C (dose: 80.0 mg/kg/injection, schedule: Q04DX003 (ip), vehicle: suspension in saline): 154 % of control
T/C (dose: 80.0 mg/kg/injection, schedule: Q04DX003 (iv), vehicle: suspension in saline): 162 % of control
T/C (dose: 80.0 mg/kg/injection, schedule: Q08DX002 (ip), vehicle: saline): 154 % of control
T/C (dose: 96.0 mg/kg/injection, schedule: Q01DX009 (oral), vehicle: saline): 115 % of control
T/C (dose: 116.0 mg/kg/injection, schedule: Q01DX005 (ip), vehicle: water): 117 % of control
T/C (dose: 116.0 mg/kg/injection, schedule: Q01DX009 (ip), vehicle: water): 150 % of control
T/C (dose: 116.0 mg/kg/injection, schedule: Q04DX003 (ip), vehicle: water): 106 % of control
T/C (dose: 150.0 mg/kg/injection, schedule: Q04DX003 (ip), vehicle: saline): 152 % of control
T/C (dose: 160.0 mg/kg/injection, schedule: Q03HX008 (ip), vehicle: saline): 160 % of control
T/C (dose: 160.0 mg/kg/injection, schedule: Q03HX016 (ip), vehicle: saline): 174 % of control
T/C (dose: 160.0 mg/kg/injection, schedule: Q03HX024 (ip), vehicle: saline): 155 % of control
T/C (dose: 160.0 mg/kg/injection, schedule: Q04DX003 (ip), vehicle: saline): 162 % of control
T/C (dose: 160.0 mg/kg/injection, schedule: Q08DX002 (ip), vehicle: saline): 158 % of control and 152 % of control
T/C (dose: 176.0 mg/kg/injection, schedule: Q01DX005 (ip), vehicle: water): 105 % of control
T/C (dose: 176.0 mg/kg/injection, schedule: Q04DX003 (ip), vehicle: water): 121 % of control
T/C (dose: 192.0 mg/kg/injection, schedule: Q01DX009 (oral), vehicle: saline): 106 % of control
T/C (dose: 240.0 mg/kg/injection, schedule: Q01DX001 (oral), vehicle: saline): 152 % of control
T/C (dose: 266.0 mg/kg/injection, schedule: Q01DX005 (ip), vehicle: water): 88 % of control
T/C (dose: 266.0 mg/kg/injection, schedule: Q04DX003 (ip), vehicle: water): 115 % of control
T/C (dose: 300.0 mg/kg/injection, schedule: Q04DX003 (ip), vehicle: saline): 101 % of control
T/C (dose: 320.0 mg/kg/injection, schedule: Q01DX001 (oral), vehicle: saline): 152 % of control
T/C (dose: 320.0 mg/kg/injection, schedule: Q03HX008 (ip), vehicle: saline): 162 % of control
T/C (dose: 320.0 mg/kg/injection, schedule: Q03HX016 (ip), vehicle: saline): 158 % of control
T/C (dose: 320.0 mg/kg/injection, schedule: Q04DX003 (ip), vehicle: suspension in saline): 108 % of control

O=[N+]([O-])c1ncn[nH]1
T/C (dose: 100.0 mg/kg/injection, schedule: Q01DX009 (ip), vehicle: saline with Tween-80): 111 % of control
T/C (dose: 200.0 mg/kg/injection, schedule: Q01DX009 (ip), vehicle: saline with Tween-80): 100 % of control
T/C (dose: 400.0 mg/kg/injection, schedule: Q01DX009 (ip), vehicle: saline with Tween-80): 92 % of control

CCOC(=O)c1ccc2c(c1)Cc1cc(N)ccc1-2
T/C (dose: 100.0 mg/kg/injection, schedule: Q01DX001 (ip), vehicle: carboxymethylcellulose (CMC)): 98 % of control
T/C (dose: 200.0 mg/kg/injection, schedule: Q01DX001 (ip), vehicle: carboxymethylcellulose (CMC)): 95 % of control

O=[N+]([O-])c1cc(Br)ccc1P(=O)(O)O
T/C (dose: 50.0 mg/kg/injection, schedule: Q04DX003 (ip), vehicle: saline): 95 % of control
T/C (dose: 100.0 mg/kg/injection, schedule: Q04DX003 (ip), vehicle: saline): 96 % of control
T/C (dose: 200.0 mg/kg/injection, schedule: Q04DX003 (ip), vehicle: saline): 93 % of control
